Reference: ChEMBL document CHEMBL5550097, “Drug-drug conjugates of MEK and Akt inhibitors for RAS-mutant cancers” (Bioorg Med Chem, 2024)

Conditions: human, microsomes, 1 h, 10 µM
Description: Metabolic stability in human liver microsomes at 10 uM preincubated for 5 mins followed by NADPH addition and measured upto 60 mins by LC-MS/MS method

## Cc1ncc2n1-c1ccc(Cl)cc1C(c1ccccc1F)=NC2 [MIDAZOLAM]
  Stability: Unstable
